Test results as given in US20250161235A1, “STRESS TEST AND TREATMENT OF CHRONIC KIDNEY DISEASE” (Renibus Therapeutics, Inc., priority 2020, published 2025).
Entries after “also recorded” stand apart in the source; their conditions may differ.

Columns and labels:
Type in all cases: in vivo, humans
[1] = Estimated glomerular filtration rate after administration of 90 mg tin protoporphyrin; conditions: mean ± 1 SD
[2] = Urine biomarkers of kidney injury after administration of 90 mg tin protoporphyrin
HO-1 = assay: Plasma HO-1 levels following SnPP injection
Description: Plasma HO-1 levels were measured at baseline and from 1-4 days following 9, 27, or 90 mg SnPP injection. Time and dose dependent increases were observed (mean values/95% confidence intervals depicted).
The plasma HO-1 levels rose following SnPP injection in stage 3 CKD ([…]) and stage 4 CKD ([…]) participants as shown in FIG. 2. Plasma HO-1 levels were measured at baseline and from 1-4 days following 27 mg or 90 mg SnPP injection. […] P<0.001, all in-group comparisons; ANOVA, repeated measures. The mean values/95% confidence intervals are depicted.
(§1) Baseline and maximal (peak) plasma anti-oxidant protein concentrations, as generated with the highest test dose of SnPP (90 mg). CKD=CKD 3 and CKD 4 groups combined. […] The values presented are means and 95% confidence intervals. Please see the figures for change of values over time and statistics by ANOVA for repeated measures. […] The timing of the peak values were 4 days, 12 hrs, 12 hrs and 4 hrs for HO-1, ferritin, p21, and NQO1, respectively.

ferritin = assay: Plasma ferritin levels following SnPP injection
Description: Plasma ferritin levels were measured at baseline and 24+48 hrs following 90 mg SnPP injection in healthy volunteers and in CKD3/CKD4 participants. […] Means/95% confidence intervals are depicted.
as §1

NQO1 = assay: Plasma and urinary NQO1 responses to 90 mg SnPP infusion
Description: Values are means/95% confidence intervals; urine values are after log base 10 conversion; statistics by ANOVA repeated measures, in-group comparisons.
as §1

p21 = assay: Plasma p21 concentrations following SnPP injection
Description: There were marked variations in p21 values between participants, as reflected by large standard deviations (SDs: numbers in parentheses that appear at the bottom of the graph). (HVs=healthy volunteers; BL=baseline).
as §1

[3] = 90 mg SnPP, healthy volunteers and CKD combined

## C=Cc1c2[n-]c(c1C)/C=c1\[n-]/c(c(C)c1C=C)=C\c1[n-]c(c(CCC(=O)O)c1C)/C=c1\[n-]c(c(C)c1CCC(=O)O)=C2.[Sn+4] [SnPP, tin protoporphyrin]
[1]; CKD3, Day 2 post SnPP 90 mg
  eGFR: 50 ± 6 ml/min/1.73 m^2
[1]; CKD3, Day 4 post SnPP 90 mg
  eGFR: 47 ± 6 ml/min/1.73 m^2
[1]; CKD4, Day 2 post SnPP 90 mg
  eGFR: 23 ± 5 ml/min/1.73 m^2
[1]; CKD4, Day 4 post SnPP 90 mg
  eGFR: 22 ± 4 ml/min/1.73 m^2
[1]; Healthy Volunteers, Day 2 post SnPP 90 mg
  eGFR: 87 ± 5 ml/min/1.73 m^2
[1]; Healthy Volunteers, Day 4 post SnPP 90 mg
  eGFR: 88 ± 4 ml/min/1.73 m^2
[2]; CKD 3, Day 1, mean ± 1 SD
  urine Cystatin C: 26.8 ± 12.9 ng/mg Cr
  urine KIM-1: 0.8 ± 0.2 ng/mg Cr
  urine NAG: 5.66 ± 3.44 mU/mg Cr
  urine NGAL: 46.5 ± 35.3 ng/mg Cr
[2]; CKD 3, Day 2, mean ± 1 SD
  urine Cystatin C: 32.2 ± 9.8 ng/mg Cr
  urine KIM-1: 1.5 ± 0.6 ng/mg Cr
  urine NAG: 8.2 ± 3.44 mU/mg Cr
  urine NGAL: 35.8 ± 23.2 ng/mg Cr
[2]; CKD 3, Day 3, mean ± 1 SD
  urine Cystatin C: 34.0 ± 9.4 ng/mg Cr
  urine KIM-1: 1.4 ± 0.6 ng/mg Cr
  urine NAG: 6.5 ± 1.7 mU/mg Cr
  urine NGAL: 49.8 ± 39.7 ng/mg Cr
[2]; CKD 3, Day 4, mean ± 1 SD
  urine Cystatin C: 33.2 ± 33.2 ng/mg Cr
  urine KIM-1: 0.9 ± 0.2 ng/mg Cr
  urine NAG: 5.9 ± 2.1 mU/mg Cr
  urine NGAL: 42.6 ± 51.7 ng/mg Cr
[2]; CKD 4, Day 1, mean ± 1 SD
  urine Cystatin C: 332 ± 519 ng/mg Cr
  urine KIM-1: 0.8 ± 1.0 ng/mg Cr
  urine NAG: 12.5 ± 11.34 mU/mg Cr
  urine NGAL: 58.0 ± 79.1 ng/mg Cr
[2]; CKD 4, Day 2, mean ± 1 SD
  urine Cystatin C: 638 ± 965 ng/mg Cr
  urine KIM-1: 1.2 ± 1.0 ng/mg Cr
  urine NAG: 10.6 ± 7.5 mU/mg Cr
  urine NGAL: 64.8 ± 91.0 ng/mg Cr
[2]; CKD 4, Day 3, mean ± 1 SD
  urine Cystatin C: 186 ± 213 ng/mg Cr
  urine KIM-1: 1.2 ± 1.0 ng/mg Cr
  urine NAG: 10.5 ± 5.6 mU/mg Cr
  urine NGAL: 47.3 ± 60.2 ng/mg Cr
[2]; CKD 4, Day 4, mean ± 1 SD
  urine Cystatin C: 207 ± 238 ng/mg Cr
  urine KIM-1: 1.0 ± 0.8 ng/mg Cr
  urine NAG: 6.2 ± 3.4 mU/mg Cr
  urine NGAL: 48.0 ± 49.5 ng/mg Cr
[2]; HVs, Day 1, mean ± 1 SD
  urine Cystatin C: 32.1 ± 15.1 ng/mg Cr
  urine KIM-1: 0.7 ± 0.5 ng/mg Cr
  urine NGAL: 21.1 ± 28.7 ng/mg Cr
[2]; HVs, Day 2, mean ± 1 SD
  urine Cystatin C: 34.8 ± 7.2 ng/mg Cr
  urine KIM-1: 0.8 ± 0.7 ng/mg Cr
  urine NAG: 3.16 ± 1.16 mU/mg Cr
  urine NGAL: 14.8 ± 13.1 ng/mg Cr
[2]; HVs, Day 3, mean ± 1 SD
  urine Cystatin C: 39.6 ± 9.4 ng/mg Cr
  urine KIM-1: 0.7 ± 0.4 ng/mg Cr
  urine NAG: 2.51 ± 0.64 mU/mg Cr
  urine NGAL: 14.0 ± 8.7 ng/mg Cr
[2]; HVs, Day 4, mean ± 1 SD
  urine Cystatin C: 40.4 ± 9.3 ng/mg Cr
  urine KIM-1: 0.6 ± 0.4 ng/mg Cr
  urine NAG: 2.66 ± 0.8 mU/mg Cr
  urine NGAL: 10.2 ± 5.6 ng/mg Cr
HO-1; 90 mg SnPP
  timing of the peak plasma value, HO-1: 4 days
HO-1; [3]
  peak plasma HO-1 value vs baseline: significantly higher than baseline values
HO-1; healthy volunteers, baseline and 1-4 days following 9, 27, or 90 mg SnPP injection
  plasma HO-1 levels: rise in a dose dependent fashion; also recorded: rose in a dose dependent fashion
HO-1; stage 3 CKD and stage 4 CKD participants, 1-4 days following 27 mg or 90 mg SnPP injection
  plasma HO-1 levels: rise and Time and dose dependent HO-1 increases
ferritin; 90 mg SnPP
  timing of the peak plasma value, ferritin: 12 h
ferritin; 90 mg SnPP injection
  plasma ferritin increases over baseline, CKD vs healthy volunteer groups: comparable
ferritin; [3]
  peak plasma ferritin value vs baseline: significantly higher than baseline values
ferritin; baseline and 24+48 hrs following 90 mg SnPP injection, healthy volunteers and CKD3/CKD4
  plasma ferritin levels: increase; also recorded: significant plasma ferritin increases
NQO1; 90 mg SnPP
  timing of the peak plasma value, NQO1: 4 h
NQO1; [3]
  peak plasma NQO1 value vs baseline: significantly higher than baseline values
NQO1; healthy volunteer and CKD participants, 90 mg SnPP injection
  plasma NQO1: acute, near identical increases
NQO1; healthy volunteers and combined CKD participants, 72 hr observation period, 90 mg SnPP
  urinary NQO1/creatinine levels: significant, and progressive increases
p21; 90 mg SnPP
  p21 response, CKD group compared to healthy volunteer group: significantly blunted p21 response
  timing of the peak plasma value, p21: 12 h
p21; [3]
  peak plasma p21 value vs baseline: significantly higher than baseline values
p21; CKD group (combined)
  plasma p21 fold increase over baseline (mean): 0.51
p21; healthy volunteer and CKD participants, 12 and 24 hrs post SnPP injection
  plasma p21: plasma p21 increases
p21; healthy volunteer group
  plasma p21 fold increase over baseline (mean): 2.65
